According to ChEMBL document CHEMBL5500383, “Recent advances and future directions on small molecule VEGFR inhibitors in oncological conditions” (Eur J Med Chem, 2024):
pIC50: −log10 of the molar value. In brackets after ≈: the same amount, converted by molar mass. Blank lines part the entries; values can stand above or below the compound they belong to.

Tests used:
Histone deacetylase 4 = Histone deacetylase 4 (Homo sapiens, UniProt P56524); assay: Inhibition of HDAC4 (unknown origin)
T47D = assay: Antiproliferative activity against human T47D cells assessed as growth inhibition at 10 uM after 48 hrs by sulforhodamine B assay relative to control; assay type: functional; set-up: scale not given: the % may be the effect or the level left
A498 [1] = assay: Antiproliferative activity against human A498 cells assessed as growth inhibition at 10 uM after 48 hrs by sulforhodamine B assay relative to control; assay type: functional; set-up: scale not given: the % may be the effect or the level left
CAKI-1 = assay: Cytotoxicity against human CAKI-1 cells assessed as reduction in cell growth incubated for 48 hrs by MTT assay; assay type: functional, cell-based; conditions: CAKI-1, 48 h
A498 [2] = assay: Cytotoxicity against human A498 cells assessed as reduction in cell viability incubated for 48 hrs by MTT assay; assay type: functional, cell-based; conditions: A498, 48 h
HepG2 [3] = assay: Anticancer activity against human HepG2 cells assessed as reduction in cell growth incubated for 24 hrs by MTT assay; assay type: functional, cell-based; conditions: HepG2, 24 h
[4] = Acute toxicity in ip dosed Swiss albino mouse assessed as lethal dose; assay type: organism-based; conditions: in vivo, read-out: ALD50
[5] = target: T1, Vascular endothelial growth factor receptor 2 (Homo sapiens, UniProt P35968); assay: Inhibition of VEGFR2 (unknown origin)
HepG2 [6] = assay: Cytotoxicity against human HepG2 cells assessed as inhibition of cell growth incubated for 48 hrs by MTT assay; assay type: functional, cell-based; conditions: HepG2, 48 h
HCT-116 [7] = assay: Cytotoxicity against human HCT-116 cells assessed as inhibition of cell growth incubated for 48 hrs by MTT assay; assay type: functional, cell-based; conditions: HCT-116, 48 h
MCF7 [8] = assay: Cytotoxicity against human MCF7 cells assessed as inhibition of cell growth incubated for 48 hrs by MTT assay; assay type: functional, cell-based; conditions: MCF7, 48 h
PC-3 [9] = assay: Cytotoxicity against human PC-3 cells assessed as inhibition of cell growth incubated for 48 hrs by MTT assay; assay type: functional, cell-based; conditions: PC-3, 48 h
HepG2 [10] = assay: Antiproliferative activity against human HepG2 cells assessed as reduction in cell viability incubated for 24 hrs by MTT assay; assay type: functional, cell-based; conditions: HepG2, 24 h
PC-3 [11] = assay: Antiproliferative activity against human PC-3 cells assessed as reduction in cell viability incubated for 24 hrs by MTT assay; assay type: functional, cell-based; conditions: PC-3, 24 h
MCF7 [12] = assay: Antiproliferative activity against human MCF7 cells assessed as reduction in cell viability incubated for 24 hrs by MTT assay; assay type: functional, cell-based; conditions: MCF7, 24 h
[13] = Cytotoxicity against human WI-38 cells assessed as reduction in cell growth; assay type: toxicity, cell-based
HL-60 = assay: Cytotoxicity against human HL-60 cells assessed as reduction in cell growth; assay type: functional, cell-based
[14] = target: T1, Vascular endothelial growth factor receptor 2; assay: Inhibition of human VEGFR2 by discoverX kinome scan assay
[15] = target: T1, Vascular endothelial growth factor receptor 2; assay: Inhibition of human recombinant VEGFR2 using biotinylated poly-GluTyr (4:1) as susbtrate measured for 1 hr by ELISA method
HepG2 [16] = assay: Cytotoxicity against human HepG2 cells assessed as reduction in cell viability measured after 72 hrs by MTT assay; assay type: functional, cell-based; conditions: HepG2, 72 h
HCT-116 [17] = assay: Cytotoxicity against human HCT-116 cells assessed as reduction in cell viability measured after 72 hrs by MTT assay; assay type: functional, cell-based; conditions: HCT-116, 72 h
MCF7 [18] = assay: Cytotoxicity against human MCF7 cells assessed as reduction in cell viability measured after 72 hrs by MTT assay; assay type: functional, cell-based; conditions: MCF7, 72 h
[19] = Cytotoxicity against African green monkey Vero cells assessed as inhibition of cell growth incubated for 24 hrs by MTT assay; assay type: toxicity, cell-based, Chlorocebus sabaeus
[20] = target: T1, Vascular endothelial growth factor receptor 2; assay: Inhibition of VEGFR2 (unknown origin) by Z'-Lyte kinase assay
Histone deacetylase 1 = Histone deacetylase 1 (Homo sapiens, UniProt Q13547); assay: Inhibition of HDAC1 (unknown origin)
[21] = target: T2, Protein deacetylase HDAC6 (Homo sapiens, UniProt Q9UBN7); assay: Inhibition of HDAC6 (unknown origin)
T2 sequence (Q9UBN7 whole entry): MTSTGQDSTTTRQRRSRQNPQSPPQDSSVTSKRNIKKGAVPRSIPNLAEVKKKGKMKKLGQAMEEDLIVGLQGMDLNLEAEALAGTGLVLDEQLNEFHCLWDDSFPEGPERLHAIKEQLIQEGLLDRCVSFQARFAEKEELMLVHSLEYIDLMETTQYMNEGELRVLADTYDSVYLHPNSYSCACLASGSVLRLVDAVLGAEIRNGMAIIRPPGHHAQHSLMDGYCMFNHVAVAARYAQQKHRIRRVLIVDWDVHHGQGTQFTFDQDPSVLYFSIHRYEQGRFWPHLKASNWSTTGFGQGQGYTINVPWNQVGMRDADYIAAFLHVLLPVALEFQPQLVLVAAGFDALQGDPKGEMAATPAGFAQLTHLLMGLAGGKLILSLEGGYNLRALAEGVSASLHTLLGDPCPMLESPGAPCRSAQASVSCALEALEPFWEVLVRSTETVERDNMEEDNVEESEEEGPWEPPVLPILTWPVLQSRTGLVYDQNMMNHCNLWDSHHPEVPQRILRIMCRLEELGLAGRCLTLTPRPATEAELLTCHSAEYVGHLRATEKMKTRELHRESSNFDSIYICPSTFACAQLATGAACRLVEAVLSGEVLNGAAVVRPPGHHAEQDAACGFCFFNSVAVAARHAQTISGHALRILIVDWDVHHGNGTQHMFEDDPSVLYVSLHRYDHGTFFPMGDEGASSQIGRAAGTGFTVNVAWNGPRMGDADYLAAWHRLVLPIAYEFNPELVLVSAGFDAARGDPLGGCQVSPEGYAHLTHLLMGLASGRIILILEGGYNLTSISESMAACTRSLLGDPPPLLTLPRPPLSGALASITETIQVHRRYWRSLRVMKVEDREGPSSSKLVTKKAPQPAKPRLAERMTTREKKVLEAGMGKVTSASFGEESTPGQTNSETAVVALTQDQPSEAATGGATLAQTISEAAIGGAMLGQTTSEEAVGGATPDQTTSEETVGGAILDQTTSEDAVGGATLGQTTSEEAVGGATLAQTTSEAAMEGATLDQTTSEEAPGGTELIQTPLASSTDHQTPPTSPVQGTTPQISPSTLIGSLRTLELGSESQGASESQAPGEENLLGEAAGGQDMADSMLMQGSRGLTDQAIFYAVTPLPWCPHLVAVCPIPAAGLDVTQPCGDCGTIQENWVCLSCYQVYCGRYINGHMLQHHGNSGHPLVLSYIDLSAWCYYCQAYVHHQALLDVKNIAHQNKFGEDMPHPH

[22] = target: Vascular endothelial growth factor receptor 1 (Homo sapiens, UniProt P17948); assay: Inhibition of VEGFR1 (unknown origin)
[23] = target: Vascular endothelial growth factor receptor 3 (Homo sapiens, UniProt P35916); assay: Inhibition of VEGFR3 (unknown origin)
A549 = assay: Antiproliferative activity against human A549 cells assessed as reduction in cell viability; assay type: functional, cell-based
NCI-H441 = assay: Antiproliferative activity against human NCI-H441 cells assessed as reduction in cell viability; assay type: functional, cell-based
NCI-H1650 = assay: Antiproliferative activity against human NCI-H1650 cells assessed as reduction in cell viability; assay type: functional, cell-based
NCI-H1975 = assay: Antiproliferative activity against human NCI-H1975 cells assessed as reduction in cell viability; assay type: functional, cell-based
[24] = target: Serine/threonine-protein kinase B-raf (Homo sapiens, UniProt P15056); assay: Inhibition of wild type BRAF (unknown origin)
[25] = target: Serine/threonine-protein kinase B-raf (Homo sapiens, UniProt P15056, V600E); assay: Inhibition of BRAF V600E mutant (unknown origin)
[26] = target: T1, Vascular endothelial growth factor receptor 2; assay: Inhibition of VEGFR2 (unknown origin) incubated for 1 hr in presence of ATP by ELISA method
[27] = Cytotoxicity against HUVEC cells assessed as cell growth inhibition incubated for 72 hrs by MTT assay; assay type: toxicity, cell-based; conditions: human
[28] = target: T1, Vascular endothelial growth factor receptor 2; assay: Inhibition of VEGFR2 (unknown origin) by kinase profiling assay

T1 sequence (P35968 whole entry): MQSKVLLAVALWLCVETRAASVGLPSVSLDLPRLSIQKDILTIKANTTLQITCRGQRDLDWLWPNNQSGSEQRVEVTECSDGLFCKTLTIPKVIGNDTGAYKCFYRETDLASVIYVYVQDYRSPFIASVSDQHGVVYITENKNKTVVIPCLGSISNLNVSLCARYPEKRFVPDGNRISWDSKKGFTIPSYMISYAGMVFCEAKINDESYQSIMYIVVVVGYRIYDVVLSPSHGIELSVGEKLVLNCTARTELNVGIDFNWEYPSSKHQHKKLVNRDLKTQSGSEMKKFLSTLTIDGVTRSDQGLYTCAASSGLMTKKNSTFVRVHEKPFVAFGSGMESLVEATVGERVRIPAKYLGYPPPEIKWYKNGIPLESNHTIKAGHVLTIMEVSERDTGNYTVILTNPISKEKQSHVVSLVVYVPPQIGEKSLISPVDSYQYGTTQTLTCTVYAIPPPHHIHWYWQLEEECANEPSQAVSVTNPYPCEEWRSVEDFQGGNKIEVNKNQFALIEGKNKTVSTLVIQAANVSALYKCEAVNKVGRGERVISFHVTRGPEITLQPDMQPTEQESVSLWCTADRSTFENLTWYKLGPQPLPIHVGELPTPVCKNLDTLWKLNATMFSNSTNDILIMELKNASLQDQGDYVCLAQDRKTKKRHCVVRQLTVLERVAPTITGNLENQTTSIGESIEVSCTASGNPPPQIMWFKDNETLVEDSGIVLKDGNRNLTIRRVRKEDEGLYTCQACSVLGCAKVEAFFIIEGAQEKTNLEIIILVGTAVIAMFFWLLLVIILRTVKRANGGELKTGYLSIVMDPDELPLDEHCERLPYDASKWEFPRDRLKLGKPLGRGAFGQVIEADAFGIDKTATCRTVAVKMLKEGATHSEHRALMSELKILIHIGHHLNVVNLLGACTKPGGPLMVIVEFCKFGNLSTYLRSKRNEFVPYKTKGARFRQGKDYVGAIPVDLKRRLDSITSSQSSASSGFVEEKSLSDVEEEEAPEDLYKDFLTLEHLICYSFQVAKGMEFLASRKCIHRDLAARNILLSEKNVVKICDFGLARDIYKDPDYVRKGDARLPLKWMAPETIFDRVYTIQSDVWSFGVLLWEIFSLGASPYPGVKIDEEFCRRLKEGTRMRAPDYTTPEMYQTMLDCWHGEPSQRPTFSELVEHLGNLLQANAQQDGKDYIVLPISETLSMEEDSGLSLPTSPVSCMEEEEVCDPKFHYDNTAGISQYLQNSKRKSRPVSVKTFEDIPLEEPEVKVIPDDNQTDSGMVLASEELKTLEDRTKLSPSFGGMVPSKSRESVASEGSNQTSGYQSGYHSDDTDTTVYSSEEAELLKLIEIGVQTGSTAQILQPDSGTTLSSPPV
Chain of Histone deacetylase 4 (P56524 whole entry): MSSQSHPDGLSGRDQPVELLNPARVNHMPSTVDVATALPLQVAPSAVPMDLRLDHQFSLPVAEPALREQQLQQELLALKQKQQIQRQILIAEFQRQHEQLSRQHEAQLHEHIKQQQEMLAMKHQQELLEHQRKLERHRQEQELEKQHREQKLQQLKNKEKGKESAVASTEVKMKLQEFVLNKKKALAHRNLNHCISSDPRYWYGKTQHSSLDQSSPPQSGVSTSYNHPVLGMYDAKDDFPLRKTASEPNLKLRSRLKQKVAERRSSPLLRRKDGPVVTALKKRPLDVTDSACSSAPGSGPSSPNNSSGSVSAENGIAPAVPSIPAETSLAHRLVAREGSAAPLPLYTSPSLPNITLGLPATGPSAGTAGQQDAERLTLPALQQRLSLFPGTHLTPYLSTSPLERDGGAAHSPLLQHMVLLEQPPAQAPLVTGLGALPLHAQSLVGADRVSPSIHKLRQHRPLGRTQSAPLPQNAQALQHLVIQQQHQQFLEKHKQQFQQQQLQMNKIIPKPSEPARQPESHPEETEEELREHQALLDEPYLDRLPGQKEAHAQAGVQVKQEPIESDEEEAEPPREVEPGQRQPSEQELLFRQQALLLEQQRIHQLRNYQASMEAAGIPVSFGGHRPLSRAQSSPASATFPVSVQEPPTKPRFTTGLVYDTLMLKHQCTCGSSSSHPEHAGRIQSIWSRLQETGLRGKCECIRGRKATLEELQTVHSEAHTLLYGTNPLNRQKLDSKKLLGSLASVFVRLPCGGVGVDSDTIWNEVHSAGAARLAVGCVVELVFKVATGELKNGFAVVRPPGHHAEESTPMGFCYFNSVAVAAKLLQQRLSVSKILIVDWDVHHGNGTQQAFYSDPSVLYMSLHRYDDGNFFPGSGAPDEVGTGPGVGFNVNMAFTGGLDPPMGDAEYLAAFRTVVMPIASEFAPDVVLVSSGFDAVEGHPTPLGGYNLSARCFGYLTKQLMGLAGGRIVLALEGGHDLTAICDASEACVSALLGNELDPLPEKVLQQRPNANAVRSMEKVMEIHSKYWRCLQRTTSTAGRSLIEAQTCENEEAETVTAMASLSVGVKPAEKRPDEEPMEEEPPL
Chain of Histone deacetylase 1 (Q13547 whole entry): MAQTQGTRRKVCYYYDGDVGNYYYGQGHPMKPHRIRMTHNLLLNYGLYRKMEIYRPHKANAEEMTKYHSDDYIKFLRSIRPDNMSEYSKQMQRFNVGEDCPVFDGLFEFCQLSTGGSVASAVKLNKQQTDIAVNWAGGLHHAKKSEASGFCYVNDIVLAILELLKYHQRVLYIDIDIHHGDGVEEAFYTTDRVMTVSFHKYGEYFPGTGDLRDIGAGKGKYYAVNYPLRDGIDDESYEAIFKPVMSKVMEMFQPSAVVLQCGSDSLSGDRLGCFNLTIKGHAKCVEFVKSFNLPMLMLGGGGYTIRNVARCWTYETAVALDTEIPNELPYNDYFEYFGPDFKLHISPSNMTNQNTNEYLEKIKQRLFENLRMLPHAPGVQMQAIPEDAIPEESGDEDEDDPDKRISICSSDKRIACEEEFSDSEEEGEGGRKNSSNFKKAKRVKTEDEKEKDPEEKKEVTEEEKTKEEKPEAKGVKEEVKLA
Chain of Vascular endothelial growth factor receptor 1 (P17948 whole entry): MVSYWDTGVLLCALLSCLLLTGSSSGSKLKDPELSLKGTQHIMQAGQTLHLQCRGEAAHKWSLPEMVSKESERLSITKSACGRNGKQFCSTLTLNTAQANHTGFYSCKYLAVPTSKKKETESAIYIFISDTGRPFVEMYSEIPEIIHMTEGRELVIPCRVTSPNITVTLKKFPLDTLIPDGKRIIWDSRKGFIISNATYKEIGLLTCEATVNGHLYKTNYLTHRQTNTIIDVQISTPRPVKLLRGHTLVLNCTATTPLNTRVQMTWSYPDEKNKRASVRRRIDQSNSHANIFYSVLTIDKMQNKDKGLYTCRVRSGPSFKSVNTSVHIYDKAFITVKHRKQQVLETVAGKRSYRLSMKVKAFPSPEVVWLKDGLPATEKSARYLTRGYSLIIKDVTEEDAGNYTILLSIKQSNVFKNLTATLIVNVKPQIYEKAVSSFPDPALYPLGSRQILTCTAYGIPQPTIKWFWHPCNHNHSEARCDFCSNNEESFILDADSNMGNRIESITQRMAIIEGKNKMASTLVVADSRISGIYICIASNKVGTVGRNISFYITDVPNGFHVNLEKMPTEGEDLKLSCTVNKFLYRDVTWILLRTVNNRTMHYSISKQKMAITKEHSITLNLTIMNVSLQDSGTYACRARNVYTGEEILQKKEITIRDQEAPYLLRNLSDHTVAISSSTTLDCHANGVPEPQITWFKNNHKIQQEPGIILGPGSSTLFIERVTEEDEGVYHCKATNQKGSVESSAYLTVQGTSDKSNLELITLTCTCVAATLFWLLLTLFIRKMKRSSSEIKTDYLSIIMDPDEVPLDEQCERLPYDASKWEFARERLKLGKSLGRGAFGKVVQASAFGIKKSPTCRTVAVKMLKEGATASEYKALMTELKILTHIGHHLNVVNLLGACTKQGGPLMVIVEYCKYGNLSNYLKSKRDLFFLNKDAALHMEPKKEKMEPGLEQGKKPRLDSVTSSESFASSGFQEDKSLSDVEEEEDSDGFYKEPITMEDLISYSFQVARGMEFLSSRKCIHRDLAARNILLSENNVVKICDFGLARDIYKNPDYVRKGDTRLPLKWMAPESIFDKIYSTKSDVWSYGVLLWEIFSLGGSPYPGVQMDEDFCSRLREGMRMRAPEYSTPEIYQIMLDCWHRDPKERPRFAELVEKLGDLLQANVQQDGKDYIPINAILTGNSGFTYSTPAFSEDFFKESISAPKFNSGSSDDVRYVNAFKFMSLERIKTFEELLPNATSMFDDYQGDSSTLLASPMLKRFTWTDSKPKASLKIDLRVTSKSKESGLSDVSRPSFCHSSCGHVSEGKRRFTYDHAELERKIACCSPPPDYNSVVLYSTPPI
Chain of Serine/threonine-protein kinase B-raf (Homo sapiens, UniProt P15056) (P15056 whole entry): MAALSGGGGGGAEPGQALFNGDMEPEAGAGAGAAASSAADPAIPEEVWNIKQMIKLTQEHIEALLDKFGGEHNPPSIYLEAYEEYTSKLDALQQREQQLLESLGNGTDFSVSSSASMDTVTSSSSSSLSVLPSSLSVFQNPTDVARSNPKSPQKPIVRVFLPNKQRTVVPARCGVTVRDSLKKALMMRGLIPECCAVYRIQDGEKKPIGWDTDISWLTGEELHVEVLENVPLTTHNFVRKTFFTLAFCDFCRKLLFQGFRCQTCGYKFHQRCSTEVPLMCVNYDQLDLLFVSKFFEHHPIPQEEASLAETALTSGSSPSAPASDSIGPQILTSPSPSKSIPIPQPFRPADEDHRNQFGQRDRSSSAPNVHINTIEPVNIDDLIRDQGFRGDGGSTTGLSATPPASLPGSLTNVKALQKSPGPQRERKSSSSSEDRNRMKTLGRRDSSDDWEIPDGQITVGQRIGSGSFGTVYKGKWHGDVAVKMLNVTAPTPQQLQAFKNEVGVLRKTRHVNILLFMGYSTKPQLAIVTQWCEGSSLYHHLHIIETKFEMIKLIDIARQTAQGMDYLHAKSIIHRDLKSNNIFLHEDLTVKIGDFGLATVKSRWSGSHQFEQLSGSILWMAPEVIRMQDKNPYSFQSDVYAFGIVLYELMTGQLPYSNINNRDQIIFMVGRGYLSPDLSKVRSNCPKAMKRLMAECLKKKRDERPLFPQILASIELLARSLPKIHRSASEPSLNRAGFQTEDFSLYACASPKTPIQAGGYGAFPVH

Compound: Cc1c2ccc(N(C)c3ccnc(Nc4ccc(C(=O)Nc5ccccc5N)cc4)n3)cc2nn1C
- pIC50 (Histone deacetylase 4): < 5.00

Compound: O=C(Nc1ccccc1)Nc1ccc(Nc2ncnc3sc4c(c23)CCOC4)cc1
- Activity (T47D): 85.5%
- Activity (A498 [1]): 77.65%

Compound: COc1ccc(/C=N/n2c(SCC(=O)c3ccc(Cl)cc3)nnc2-c2cc3ccccc3[nH]2)cc1
- pIC50 (CAKI-1): 6.05
- pIC50 (A498 [2]): 5.66

Compound: CCOc1ccc(Nc2nnc3c4c(cccc24)NC(=S)N3Cc2ccccc2)cc1
- pIC50 (HepG2 [3]): 6.66
- LD50 [4]: > 800 mg/kg

Compound: N=c1cc(N)nc2sc(NC(=O)c3cccs3)nn12
- pIC50 [5]: 5.09
- pIC50 (HepG2 [6]): 5.37
- pIC50 (HCT-116 [7]): 4.48
- pIC50 (MCF7 [8]): 5.07
- pIC50 (PC-3 [9]): 5.11

Compound: Cc1c2ccc(Nc3ccnc(Nc4ccc(NC(=O)CCCCCCC(=O)NO)cc4)n3)cc2nn1C
- pIC50 [5]: 7.80
- pIC50 (Histone deacetylase 1): 6.92
- pIC50 (Histone deacetylase 4): < 5.00
- pIC50 [21]: 7.03
- pIC50 [22]: 7.74
- pIC50 [23]: 7.27

Compound: CNC(=O)c1nc(Nc2ccc(NC(=O)Nc3cccc(C)c3)cc2)c2ccccc2n1
- pIC50 [26]: 7.92

Compound: COc1ccc(-c2cc3c(ccn4nc(-c5cccnc5)nc34)o2)cc1
- pIC50 [14]: 4.41
- IC50 at 72 h [27]: 17.4 µM
- pIC50 [28]: 4.41

Compound: CCOC(=O)c1sc(N2N=C(c3ccc(Cl)cc3Cl)CC2c2ccc(OC)cc2)nc1C (stereo unspecified)
- pIC50 (A549): 5.37
- pIC50 (NCI-H441): 5.32
- pIC50 (NCI-H1650): 5.25
- pIC50 (NCI-H1975): 5.21

The next lines start with results.

- IC50 (HepG2 [10]): 17.2 µg/mL (≈ 40.3 µM)
- IC50 (PC-3 [11]): 26.1 µg/mL (≈ 61.1 µM)
- IC50 (MCF7 [12]): 30.8 µg/mL (≈ 72.2 µM)
Compound: CCn1c(SCC(=O)NNC(=O)c2ccccc2)nc2ccc([N+](=O)[O-])cc2c1=O

- pIC50 [5]: 7.17
Compound: C/C(=N\NC(=S)Nc1ccccc1)c1nnn(-c2ccc(F)cc2)c1C
- pIC50 [13]: 4.25
- pIC50 (HL-60): 5.96

- pIC50 [14]: 5.51
Compound: CCNC(=S)NS(=O)(=O)c1ccc(NC(=O)CSc2cc3ccccc3c(=O)n2CC)cc1

- pIC50 [15]: 6.85
Compound: Cc1cc(C)nc(NS(=O)(=O)c2ccc(NN=C3C(=O)NNC3=O)cc2)n1
- pIC50 (HepG2 [16]): 5.19
- pIC50 (HCT-116 [17]): 5.02
- pIC50 (MCF7 [18]): 4.98
- IC50 at 24 h [19]: 39.4 µM

- pIC50 [20]: 7.20
Compound: O=C1C(=O)N(CN2CCN(c3cc(=O)[nH]c4ccc(F)cc34)CC2)c2ccccc21

- pIC50 (A549): 5.53
- pIC50 (NCI-H441): 5.42
- pIC50 (NCI-H1650): 5.45
- pIC50 (NCI-H1975): 5.36
Compound: COc1ccc(C2CC(c3ccc(Cl)cc3Cl)=NN2c2nc(C)c(C(=O)Nc3ccccc3)s2)cc1OC (stereo unspecified)

- pIC50 [5]: 7.31
- pIC50 [24]: 7.30
- pIC50 [25]: 7.20
Compound: O=C(CSc1nc2sc3c(c2c(=O)n1-c1ccc(Cl)cc1)CCCC3)NNC(=O)Nc1ccc(Cl)c(C(F)(F)F)c1
